In patent publication US20230151025A1, “SUBSTITUTED THIAZOLOPYRIDINES, SALTS THEREOF AND THEIR USE AS HERBICIDALLY ACTIVE SUBSTANCES” (Bayer Aktiengesellschaft, priority 2020, published 2023):

system: Abutilon theophrasti (ABUTH); test: Herbicidal pre-emergence action (A), 1280 g/ha; type: in vivo; conditions: visual grading after ca. 3 weeks vs untreated controls, 100% = plants have died off, 0% = as control plants
Method in brief: (§1)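 Seeds were sown in sandy loam pots (one mono- and one dicot weed per pot) and covered with soil; WP or EC formulations were applied to the soil surface as aqueous suspension/emulsion with 0.5% additive at 600 l water/ha. Damage was scored visually after ca. 3 weeks versus untreated controls (0% = control, 100% = dead).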

Row | Structure (SMILES) | ABUTH, herbicidal effect in percent (%)
1 | Fc1ccccc1-c1nc2ncsc2cc1Cl [Example I-017] | 90
2 | CCc1cc2scnc2nc1-c1ccccc1F [Example I-023] | 90
3 | Cc1cc2scnc2nc1-c1ccccc1 [Example I-041] | 90

system: Alopecurus myosuroides (ALOMY); test: Herbicidal pre-emergence action (A), 1280 g/ha; type: in vivo; conditions: visual grading after ca. 3 weeks vs untreated controls, 100% = plants have died off, 0% = as control plants
Method in brief: as §1

Row | Structure (SMILES) | ALOMY, herbicidal effect in percent (%)
4 | Fc1ccccc1-c1nc2ncsc2cc1Cl [Example I-017] | 100
5 | CCc1cc2scnc2nc1-c1ccccc1F [Example I-023] | 100
6 | Cc1cc2scnc2nc1-c1ccccc1 [Example I-041] | 100

system: Amaranthus retroflexus (AMARE); test: Herbicidal pre-emergence action (A), 1280 g/ha; type: in vivo; conditions: visual grading after ca. 3 weeks vs untreated controls
Method in brief: as §1

Row | Structure (SMILES) | herbicidal effect AMARE [%]
7 | Fc1ccccc1-c1nc2ncsc2cc1Cl [Example I-017] | 100
8 | CCc1cc2scnc2nc1-c1ccccc1F [Example I-023] | 100
9 | Cc1cc2scnc2nc1-c1ccccc1 [Example I-041] | 100

system: Digitaria sanguinalis (DIGSA); test: Herbicidal pre-emergence action (A), 1280 g/ha; type: in vivo; conditions: visual grading after ca. 3 weeks vs untreated controls, 100% = plants have died off, 0% = as control plants
Method in brief: as §1

Row | Structure (SMILES) | DIGSA, herbicidal effect in percent (%)
10 | Fc1ccccc1-c1nc2ncsc2cc1Cl [Example I-017] | 100
11 | CCc1cc2scnc2nc1-c1ccccc1F [Example I-023] | 100
12 | Cc1cc2scnc2nc1-c1ccccc1 [Example I-041] | 100

system: Echinochloa crus-galli (ECHCG); test: Herbicidal pre-emergence action (A), 1280 g/ha; type: in vivo; conditions: visual grading after ca. 3 weeks vs untreated controls, 100% = plants have died off, 0% = as control plants
Method in brief: as §1

Row | Structure (SMILES) | ECHCG, herbicidal effect in percent (%)
13 | Fc1ccccc1-c1nc2ncsc2cc1Cl [Example I-017] | 100
14 | CCc1cc2scnc2nc1-c1ccccc1F [Example I-023] | 100
15 | Cc1cc2scnc2nc1-c1ccccc1 [Example I-041] | 100

system: Kochia scoparia (KCHSC; Bassia scoparia); test: Herbicidal pre-emergence action (A), 1280 g/ha; type: in vivo; conditions: visual grading after ca. 3 weeks vs untreated controls
Method in brief: as §1

Row | Structure (SMILES) | herbicidal effect KCHSC [%]
16 | Fc1ccccc1-c1nc2ncsc2cc1Cl [Example I-017] | 100
17 | CCc1cc2scnc2nc1-c1ccccc1F [Example I-023] | 100
18 | Cc1cc2scnc2nc1-c1ccccc1 [Example I-041] | 100

system: Lolium rigidum (LOLRI); test: Herbicidal pre-emergence action (A), 1280 g/ha; type: in vivo; conditions: visual grading after ca. 3 weeks vs untreated controls, 100% = plants have died off, 0% = as control plants
Method in brief: as §1

Row | Structure (SMILES) | LOLRI, herbicidal effect in percent (%)
19 | Fc1ccccc1-c1nc2ncsc2cc1Cl [Example I-017] | 100
20 | CCc1cc2scnc2nc1-c1ccccc1F [Example I-023] | 100
21 | Cc1cc2scnc2nc1-c1ccccc1 [Example I-041] | 100

system: Matricaria inodora (MATIN); test: Herbicidal pre-emergence action (A), 1280 g/ha; type: in vivo; conditions: visual grading after ca. 3 weeks vs untreated controls
Method in brief: as §1

Row | Structure (SMILES) | herbicidal effect MATIN [%]
22 | Fc1ccccc1-c1nc2ncsc2cc1Cl [Example I-017] | 100
23 | CCc1cc2scnc2nc1-c1ccccc1F [Example I-023] | 100
24 | Cc1cc2scnc2nc1-c1ccccc1 [Example I-041] | 100

system: Poa annua (POAAN); test: Herbicidal pre-emergence action (A), 1280 g/ha; type: in vivo; conditions: visual grading after ca. 3 weeks vs untreated controls, 100% = plants have died off, 0% = as control plants
Method in brief: as §1

Row | Structure (SMILES) | POAAN, herbicidal effect in percent (%)
25 | Fc1ccccc1-c1nc2ncsc2cc1Cl [Example I-017] | 100
26 | CCc1cc2scnc2nc1-c1ccccc1F [Example I-023] | 100
27 | Cc1cc2scnc2nc1-c1ccccc1 [Example I-041] | 100

system: Setaria viridis (SETVI); test: Herbicidal pre-emergence action (A), 1280 g/ha; type: in vivo; conditions: visual grading after ca. 3 weeks vs untreated controls
Method in brief: as §1

Row | Structure (SMILES) | herbicidal effect SETVI [%]
28 | Fc1ccccc1-c1nc2ncsc2cc1Cl [Example I-017] | 100
29 | CCc1cc2scnc2nc1-c1ccccc1F [Example I-023] | 100
30 | Cc1cc2scnc2nc1-c1ccccc1 [Example I-041] | 100

system: Stellaria media (STEME); test: Herbicidal pre-emergence action (A), 1280 g/ha; type: in vivo; conditions: visual grading after ca. 3 weeks vs untreated controls
Method in brief: as §1

Row | Structure (SMILES) | herbicidal effect STEME [%]
31 | Fc1ccccc1-c1nc2ncsc2cc1Cl [Example I-017] | 100
32 | CCc1cc2scnc2nc1-c1ccccc1F [Example I-023] | 90
33 | Cc1cc2scnc2nc1-c1ccccc1 [Example I-041] | 100

system: Veronica persica (VERPE); test: Herbicidal pre-emergence action (A), 1280 g/ha; type: in vivo; conditions: visual grading after ca. 3 weeks vs untreated controls
Method in brief: as §1

Row | Structure (SMILES) | herbicidal effect VERPE [%]
34 | Fc1ccccc1-c1nc2ncsc2cc1Cl [Example I-017] | 90
35 | CCc1cc2scnc2nc1-c1ccccc1F [Example I-023] | 100
36 | Cc1cc2scnc2nc1-c1ccccc1 [Example I-041] | 100

system: Amaranthus retroflexus (AMARE); test: Herbicidal post-emergence action (B), 1280 g/ha; type: in vivo; conditions: rated visually after about 3 weeks vs untreated controls
Method in brief: (§2)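 Post-emergence spray, one-leaf stage; WP/EC formulation, aqueous, 0.5% additive, 600 L/ha water. Sandy loam, greenhouse, doubly sown pots. Visual % rating vs untreated control at ~3 weeks (100% = dead).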

Row | Structure (SMILES) | herbicidal activity AMARE [%]
37 | Fc1ccccc1-c1nc2ncsc2cc1Cl [Example I-017] | 90
38 | CCc1cc2scnc2nc1-c1ccccc1F [Example I-023] | 100
39 | Cc1cc2scnc2nc1-c1ccccc1 [Example I-041] | 100

system: Digitaria sanguinalis (DIGSA); test: Herbicidal post-emergence action (B), 1280 g/ha; type: in vivo; conditions: rated visually after about 3 weeks vs untreated controls
Method in brief: as §2

Row | Structure (SMILES) | herbicidal activity DIGSA [%]
40 | Fc1ccccc1-c1nc2ncsc2cc1Cl [Example I-017] | 100
41 | CCc1cc2scnc2nc1-c1ccccc1F [Example I-023] | 100
42 | Cc1cc2scnc2nc1-c1ccccc1 [Example I-041] | 100

system: Echinochloa crus-galli (ECHCG); test: Herbicidal post-emergence action (B), 1280 g/ha; type: in vivo; conditions: rated visually after about 3 weeks vs untreated controls
Method in brief: as §2

Row | Structure (SMILES) | herbicidal activity ECHCG [%]
43 | Fc1ccccc1-c1nc2ncsc2cc1Cl [Example I-017] | 100
44 | CCc1cc2scnc2nc1-c1ccccc1F [Example I-023] | 100
45 | Cc1cc2scnc2nc1-c1ccccc1 [Example I-041] | 100

system: Lolium rigidum (LOLRI); test: Herbicidal post-emergence action (B), 1280 g/ha; type: in vivo; conditions: one-leaf stage, rated after about 3 weeks vs untreated controls, 100% activity = the plants have died, 0% = like control plants
Method in brief: as §2

Row | Structure (SMILES) | LOLRI, activity rated visually (%)
46 | Fc1ccccc1-c1nc2ncsc2cc1Cl [Example I-017] | 100
47 | CCc1cc2scnc2nc1-c1ccccc1F [Example I-023] | 100
48 | Cc1cc2scnc2nc1-c1ccccc1 [Example I-041] | 100

system: Stellaria media (STEME); test: Herbicidal post-emergence action (B), 1280 g/ha; type: in vivo; conditions: not given
Method in brief: as §2

Row | Structure (SMILES) | herbicidal effect STEME [%]
49 | Fc1ccccc1-c1nc2ncsc2cc1Cl [Example I-017] | 100
50 | CCc1cc2scnc2nc1-c1ccccc1F [Example I-023] | 100
51 | Cc1cc2scnc2nc1-c1ccccc1 [Example I-041] | 100

system: Veronica persica (VERPE); test: Herbicidal post-emergence action (B), 1280 g/ha; type: in vivo; conditions: not given
Method in brief: as §2

Row | Structure (SMILES) | herbicidal effect VERPE [%]
52 | Fc1ccccc1-c1nc2ncsc2cc1Cl [Example I-017] | 90
53 | CCc1cc2scnc2nc1-c1ccccc1F [Example I-023] | 90
54 | Cc1cc2scnc2nc1-c1ccccc1 [Example I-041] | 100

system: Alopecurus myosuroides (ALOMY); test: Herbicidal pre-emergence action (C), 320 g/ha; type: in vivo; conditions: ca. 3 weeks
Method in brief: (§3)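 Seeds sown in sandy loam and covered with soil; compounds formulated as WP or EC were sprayed onto the covering soil as aqueous suspension/emulsion with 0.5% additive at 600 l water/ha. Pots kept in greenhouse; damage graded visually after ca. 3 weeks versus untreated controls (0% = as control, 100% = plants dead).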

Row | Structure (SMILES) | herbicidal effect ALOMY [%]
55 | Fc1ccccc1-c1nc2ncsc2cc1Cl [Example I-017] | 100
56 | CCc1cc2scnc2nc1-c1ccccc1F [Example I-023] | 100
57 | Cc1cc2scnc2nc1-c1ccccc1 [Example I-041] | 100

system: Amaranthus retroflexus (AMARE); test: Herbicidal pre-emergence action (C), 320 g/ha; type: in vivo; conditions: ca. 3 weeks
Method in brief: as §3

Row | Structure (SMILES) | herbicidal effect AMARE [%]
58 | Fc1ccccc1-c1nc2ncsc2cc1Cl [Example I-017] | 90
59 | CCc1cc2scnc2nc1-c1ccccc1F [Example I-023] | 80
60 | Cc1cc2scnc2nc1-c1ccccc1 [Example I-041] | 90

system: Echinochloa crus-galli (ECHCG); test: Herbicidal pre-emergence action (C), 320 g/ha; type: in vivo; conditions: ca. 3 weeks
Method in brief: as §3

Row | Structure (SMILES) | herbicidal effect ECHCG [%]
61 | Fc1ccccc1-c1nc2ncsc2cc1Cl [Example I-017] | 100
62 | CCc1cc2scnc2nc1-c1ccccc1F [Example I-023] | 100
63 | Cc1cc2scnc2nc1-c1ccccc1 [Example I-041] | 100

system: Lolium rigidum (LOLRI); test: Herbicidal pre-emergence action (C), 320 g/ha; type: in vivo; conditions: ca. 3 weeks
Method in brief: as §3

Row | Structure (SMILES) | herbicidal effect LOLRI [%]
64 | Fc1ccccc1-c1nc2ncsc2cc1Cl [Example I-017] | 100
65 | CCc1cc2scnc2nc1-c1ccccc1F [Example I-023] | 100
66 | Cc1cc2scnc2nc1-c1ccccc1 [Example I-041] | 100

system: Setaria viridis (SETVI); test: Herbicidal pre-emergence action (C), 320 g/ha; type: in vivo; conditions: ca. 3 weeks
Method in brief: as §3

Row | Structure (SMILES) | herbicidal effect SETVI [%]
67 | Fc1ccccc1-c1nc2ncsc2cc1Cl [Example I-017] | 100
68 | CCc1cc2scnc2nc1-c1ccccc1F [Example I-023] | 100
69 | Cc1cc2scnc2nc1-c1ccccc1 [Example I-041] | 100

system: Veronica persica (VERPE); test: Herbicidal pre-emergence action (C), 320 g/ha; type: in vivo; conditions: ca. 3 weeks
Method in brief: as §3

Row | Structure (SMILES) | herbicidal effect VERPE [%]
70 | Fc1ccccc1-c1nc2ncsc2cc1Cl [Example I-017] | 90
71 | CCc1cc2scnc2nc1-c1ccccc1F [Example I-023] | 90
72 | Cc1cc2scnc2nc1-c1ccccc1 [Example I-041] | 90

system: Digitaria sanguinalis (DIGSA); test: Herbicidal pre-emergence action (C), 320 g/ha; type: in vivo; conditions: ca. 3 weeks
Method in brief: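 Weed and crop seeds sown in sandy loam; WP or EC formulations applied pre-emergence to the soil surface as aqueous suspension/emulsion with 0.5% additive at 600 l water/ha. Greenhouse-grown under optimum conditions; damage visually scored after ca. 3 weeks versus untreated controls (0% = as control, 100% = plants dead).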

Row | Structure (SMILES) | herbicidal effect DIGSA [%]
73 | Fc1ccccc1-c1nc2ncsc2cc1Cl [Example I-017] | 100
74 | CCc1cc2scnc2nc1-c1ccccc1F [Example I-023] | 100
75 | Cc1cc2scnc2nc1-c1ccccc1 [Example I-041] | 100
